Values quoted from earlier work, collected in patent US20090285811A1, “ANTI-INFLAMMATORY AND IMMUNOSUPPRESSIVE GLUCOCORTICOID STEROIDS” (Auspex Pharmaceuticals, Inc., priority 2008, published 2009).
Where two headings read alike, the source gives them in different places.

Legend:
[1] = biological target: T1, glucocorticoid receptor (Homo sapiens, UniProt P04150); settings: primary human CYP3A metabolites of budesonide
T1 sequence (P04150 1-777): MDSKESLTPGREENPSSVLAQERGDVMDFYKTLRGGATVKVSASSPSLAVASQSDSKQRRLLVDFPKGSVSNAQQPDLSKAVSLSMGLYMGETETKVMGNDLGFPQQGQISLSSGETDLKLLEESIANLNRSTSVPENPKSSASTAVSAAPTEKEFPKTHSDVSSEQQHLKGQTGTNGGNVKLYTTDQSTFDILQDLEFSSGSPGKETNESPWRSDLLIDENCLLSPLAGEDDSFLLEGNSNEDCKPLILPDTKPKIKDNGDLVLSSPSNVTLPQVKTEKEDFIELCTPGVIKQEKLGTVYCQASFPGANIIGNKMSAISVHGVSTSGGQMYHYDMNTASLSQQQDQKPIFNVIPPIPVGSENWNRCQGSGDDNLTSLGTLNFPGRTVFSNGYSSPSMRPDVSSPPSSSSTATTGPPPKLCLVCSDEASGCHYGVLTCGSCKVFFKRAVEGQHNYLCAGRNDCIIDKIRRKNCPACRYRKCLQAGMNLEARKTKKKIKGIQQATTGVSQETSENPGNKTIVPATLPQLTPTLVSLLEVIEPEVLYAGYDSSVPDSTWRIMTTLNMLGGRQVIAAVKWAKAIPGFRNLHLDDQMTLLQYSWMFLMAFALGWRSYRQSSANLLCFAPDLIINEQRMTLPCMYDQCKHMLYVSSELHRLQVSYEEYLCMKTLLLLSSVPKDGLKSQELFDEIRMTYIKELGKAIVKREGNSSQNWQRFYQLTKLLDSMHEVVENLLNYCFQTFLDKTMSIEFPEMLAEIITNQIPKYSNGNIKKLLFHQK

systemic availability (after oral administration)	elimination half-life (in vivo)	systemic availability (intranasal administration)	clearance (non-oral routes of administration)	clearance (oral administration) [mL/min/kg]	Structure (SMILES)	potency compared with budesonide [1]
–	–	–	–	–	CCCC1O[C@@H]2C[C@H]3[C@@H]4C[C@@H](O)C5=CC(=O)C=C[C@]5(C)[C@H]4[C@@H](O)C[C@]3(C)[C@]2(C(=O)CO)O1 (stereo partly drawn) [6β-hydroxybudesonide]	significantly less potent
–	–	–	–	–	C[C@]12C=CC(=O)C=C1CC[C@@H]1[C@@H]2[C@@H](O)C[C@@]2(C)[C@H]1C[C@@H](O)[C@]2(O)C(=O)CO [16α-hydroxyprednisolone]	significantly less potent
approximately 12%	approximately 2 hours	about 20%	about 20 mL/min/Kg	~40	CCCC1O[C@@H]2C[C@H]3[C@@H]4CCC5=CC(=O)C=C[C@]5(C)[C@H]4[C@@H](O)C[C@]3(C)[C@]2(C(=O)CO)O1 (stereo partly drawn) [Budesonide, 16,17-(butylidenebis(oxy))-11,21-dihydroxy-, (11-β,16-α)-pregna-1,4-diene-3,20-dione]	–
